We go through 17 compounds from ChEMBL document CHEMBL4033735, “A potent and selective natriuretic peptide receptor-3 blocker 11-mer peptide created by hybridization of musclin and atrial natriuretic peptide” (Bioorg Med Chem Lett, 2017).

Series [1] deals with T1, Atrial natriuretic peptide receptor 1 (Homo sapiens, UniProt P16066).
T1 sequence (P16066 whole entry): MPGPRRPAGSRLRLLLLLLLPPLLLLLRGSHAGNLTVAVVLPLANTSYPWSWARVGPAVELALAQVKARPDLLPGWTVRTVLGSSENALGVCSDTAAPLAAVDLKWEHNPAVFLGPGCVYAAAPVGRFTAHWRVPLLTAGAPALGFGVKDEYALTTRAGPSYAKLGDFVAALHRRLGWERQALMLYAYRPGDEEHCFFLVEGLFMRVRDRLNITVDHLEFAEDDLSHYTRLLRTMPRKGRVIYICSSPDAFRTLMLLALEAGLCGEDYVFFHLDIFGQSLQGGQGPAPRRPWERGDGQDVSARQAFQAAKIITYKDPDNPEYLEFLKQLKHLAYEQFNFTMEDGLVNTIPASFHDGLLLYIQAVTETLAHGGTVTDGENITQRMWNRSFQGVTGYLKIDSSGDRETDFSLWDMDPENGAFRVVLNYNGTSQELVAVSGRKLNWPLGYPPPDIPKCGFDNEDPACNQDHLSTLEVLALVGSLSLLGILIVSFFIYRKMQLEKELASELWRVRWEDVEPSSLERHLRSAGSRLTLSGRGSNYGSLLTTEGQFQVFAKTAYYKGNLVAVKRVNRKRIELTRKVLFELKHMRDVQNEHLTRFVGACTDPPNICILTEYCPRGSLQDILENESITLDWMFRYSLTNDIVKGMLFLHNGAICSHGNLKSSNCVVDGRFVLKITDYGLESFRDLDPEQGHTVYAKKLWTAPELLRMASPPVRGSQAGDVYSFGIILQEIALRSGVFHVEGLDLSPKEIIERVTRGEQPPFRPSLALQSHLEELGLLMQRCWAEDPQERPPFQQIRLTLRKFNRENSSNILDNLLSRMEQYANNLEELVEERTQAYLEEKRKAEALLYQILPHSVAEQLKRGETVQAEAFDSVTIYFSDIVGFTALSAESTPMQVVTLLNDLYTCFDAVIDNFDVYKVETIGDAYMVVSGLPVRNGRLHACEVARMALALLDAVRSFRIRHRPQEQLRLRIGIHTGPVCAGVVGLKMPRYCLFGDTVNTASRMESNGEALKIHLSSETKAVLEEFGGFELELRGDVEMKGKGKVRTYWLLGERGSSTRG
The series can be described thus: Displacement of [125I]-human ANP from human NPR-1 incubated for 2 hrs by top count method. For orientation: In a radioligand displacement assay an active substance lowers the binding of a labelled ligand.

In series [2] the target is T2, Atrial natriuretic peptide receptor 3 (Homo sapiens, UniProt P17342).
T2 sequence (P17342 whole entry): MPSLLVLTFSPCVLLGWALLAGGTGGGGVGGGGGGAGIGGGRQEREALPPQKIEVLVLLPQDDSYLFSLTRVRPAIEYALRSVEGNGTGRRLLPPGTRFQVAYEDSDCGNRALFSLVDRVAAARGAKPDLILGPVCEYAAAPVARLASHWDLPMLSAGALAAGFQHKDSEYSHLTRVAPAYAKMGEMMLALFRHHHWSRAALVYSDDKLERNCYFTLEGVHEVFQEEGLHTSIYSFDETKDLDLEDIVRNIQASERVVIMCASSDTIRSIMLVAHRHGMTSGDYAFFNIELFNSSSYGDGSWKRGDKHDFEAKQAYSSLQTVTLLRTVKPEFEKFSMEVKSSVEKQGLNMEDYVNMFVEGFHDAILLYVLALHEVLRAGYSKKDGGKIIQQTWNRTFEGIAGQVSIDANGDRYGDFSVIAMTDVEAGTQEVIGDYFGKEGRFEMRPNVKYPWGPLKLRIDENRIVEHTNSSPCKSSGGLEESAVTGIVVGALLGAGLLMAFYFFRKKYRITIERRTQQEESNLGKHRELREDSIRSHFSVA
The series can be described thus: Displacement of [125I]-human ANP from His-tagged and Fc fragment containing human NPR-3 extracellular domain expressed in FreeStyle 293 cells incubated for 2 hrs by top count method. The format is cell-based.

A short description of series [3]: Stability in 10% C57BL/6J mouse serum/phosphate-buffered saline assessed as residual parent compound remaining at 1 mM after 30 mins at 37 degC by HPLC method. The class given is ADME, cell-free. Conditions: 10% mouse serum in phosphate-buffered saline, read-out: Stability.
The nature of series [4]: Stability in 10% C57BL/6J mouse serum/phosphate-buffered saline assessed as residual parent compound remaining at 1 mM after 60 mins at 37 degC by HPLC method. Conditions: 10% mouse serum in phosphate-buffered saline, read-out: Stability. The class given is ADME, cell-free.

Square brackets hold non-standard residues; d marks the D form. Peptide text beside a SMILES is read from it. Cha = N[C@@H](CC1CCCCC1)C(=O)O

A word on the IC50: it is the concentration that gives 50% inhibition. A low value points to greater potency in that assay. On to `CC[C@H](C)[C@H](NC(=O)[C@H](CCCNC(=N)N)NC(=O)[C@H](CC(=O)O)NC(=O)[C@@H](NC(=O)[C@@H]1CCCN1C(=O)CNC(=O)[C@@H](C)NC(=O)[C@H](CC1CCCCC1)NC(=O)[C@H]1CCCN1C(=O)[C@H](CO)NC(=O)[C@@H](Cc1ccccc1)NC(C)=O)[C@@H](C)CC)C(=O)NCC(N)=O`, for which the IC50 in series [1] was greater than 1000 nM; in series [2] it was 0.19 nM.
As to `CC[C@H](C)[C@H](NC(=O)[C@H](CCCNC(=N)N)NC(=O)[C@H](CC(=O)O)NC(=O)[C@@H](NC(=O)[C@@H]1CCCN1C(=O)CNC(=O)CNC(=O)[C@H](CC1CCCCC1)NC(=O)CNC(=O)[C@H](CO)NC(=O)[C@H](N)Cc1ccccc1)[C@@H](C)CC)C(=O)NCC(N)=O`, the IC50 in series [1] was greater than 1000 nM; in series [2], 0.12 nM.
Turning to `CC[C@H](C)[C@H](NC(=O)[C@H](CCCNC(=N)N)NC(=O)[C@H](CC(=O)O)NC(=O)[C@@H](NC(=O)[C@H](CCCNC(=N)N)NC(=O)CNC(=O)CNC(=O)[C@H](CC1CCCCC1)NC(=O)CNC(=O)[C@H](CO)NC(=O)[C@@H](N)Cc1ccccc1)[C@@H](C)CC)C(=O)NCC(N)=O`, the IC50 is greater than 1000 nM in series [1] and 1.2 nM in series [2]. The remaining at 0.5 h, 1000 µM in series [3] came out at 1.4%. The remaining at 1 h, 1000 µM in series [4] worked out at 0%.
On to `CC[C@H](C)[C@H](NC(=O)[C@H](CCCNC(=N)N)NC(=O)[C@H](CC(=O)O)NC(=O)[C@@H](NC(=O)[C@H](CCCNC(=N)N)NC(=O)CNC(=O)CNC(=O)[C@H](CC1CCCCC1)NC(=O)[C@H](C)N)[C@@H](C)CC)C(=O)NCC(N)=O` (H-A[Cha]GGRIDRIG-NH2), for which the IC50 in series [1] was greater than 1000 nM; in series [2] it was 13 nM.
Take `CC[C@H](C)[C@H](NC(=O)[C@H](CCCNC(=N)N)NC(=O)[C@H](CC(=O)O)NC(=O)[C@@H](NC(=O)[C@H](CCCNC(=N)N)NC(=O)CNC(=O)CNC(=O)[C@H](CC1CCCCC1)NC(=O)[C@@H](N)CS)[C@@H](C)CC)C(=O)NCC(N)=O` (H-C[Cha]GGRIDRIG-NH2): the IC50 amounted to 120 nM in series [1] and 1.5 nM in series [2].
On to `CC[C@H](C)[C@H](NC(=O)[C@H](CCCNC(=N)N)NC(=O)[C@H](CC(=O)O)NC(=O)[C@@H](NC(=O)[C@H](CCCNC(=N)N)NC(=O)CNC(=O)CNC(=O)[C@H](CC1CCCCC1)NC(=O)CNC(=O)[C@H](CO)NC(=O)[C@@H](Cc1ccccc1)NC(C)=O)[C@@H](C)CC)C(=O)NCC(N)=O`, for which the IC50 in series [1] is greater than 1000 nM; in series [2] it was 0.93 nM.
On to `CC[C@H](C)[C@H](NC(=O)[C@H](CCCNC(=N)N)NC(=O)[C@H](CC(=O)O)NC(=O)[C@@H](NC(=O)[C@H](CCCNC(=N)N)NC(=O)CNC(=O)[C@@H](C)NC(=O)[C@H](CC1CCCCC1)NC(=O)CNC(=O)[C@H](CO)NC(=O)[C@H](N)Cc1ccccc1)[C@@H](C)CC)C(=O)NCC(N)=O`, for which the 50% inhibitory concentration (IC50) was greater than 1000 nM in series [1] and 0.36 nM in series [2].
Regarding `CC[C@H](C)[C@H](NC(=O)[C@H](CCCNC(=N)N)NC(=O)[C@H](CC(=O)O)NC(=O)[C@@H](NC(=O)[C@H](CCCNC(=N)N)NC(=O)CNC(=O)CNC(=O)[C@H](CC1CCCCC1)NC(=O)[C@H](CS)NC(C)=O)[C@@H](C)CC)C(=O)NCC(N)=O` (Ac-C[Cha]GGRIDRIG-NH2), the IC50 is greater than 1000 nM in series [1] and 35 nM in series [2].
Take `CC[C@H](C)[C@H](NC(=O)[C@H](CCCNC(=N)N)NC(=O)[C@H](CC(=O)O)NC(=O)[C@@H](NC(=O)[C@H](CCCNC(=N)N)NC(=O)CNC(=O)CNC(=O)[C@@H](N)CC1CCCCC1)[C@@H](C)CC)C(=O)NCC(N)=O` (H-[Cha]GGRIDRIG-NH2): the IC50 in series [1] is greater than 1000 nM; in series [2], 11 nM.
Compound `CC[C@H](C)[C@H](NC(=O)[C@H](CCCNC(=N)N)NC(=O)[C@H](CC(=O)O)NC(=O)[C@@H](NC(=O)[C@H](CCCNC(=N)N)NC(=O)CNC(=O)CNC(=O)[C@H](Cc1ccccc1)NC(=O)[C@H](CS)NC(=O)[C@H](CO)NC(=O)[C@H](CO)NC(=O)[C@@H](N)CCCNC(=N)N)[C@@H](C)CC)C(=O)NCC(=O)N[C@@H](C)C(=O)N[C@@H](CS)C(=O)O` (H-RSSCFGGRIDRIGAC-OH) displayed an IC50 in series [2] of 0.65 nM.
`CC[C@H](C)[C@H](NC(=O)[C@H](CCCNC(=N)N)NC(=O)[C@H](CC(=O)O)NC(=O)[C@@H](NC(=O)[C@H](CCCNC(=N)N)NC(=O)CNC(=O)CNC(=O)[C@H](CC1CCCCC1)NC(=O)CNC(=O)[C@H](CO)NC(=O)[C@H](CO)NC(=O)[C@@H](N)CCCNC(=N)N)[C@@H](C)CC)C(=O)NCC(N)=O` (H-RSSG[Cha]GGRIDRIG-NH2): the figures for the IC50 in series [1] and in series [2] were greater than 1000 nM and 7.8 nM, respectively.
Take `CC[C@H](C)[C@H](NC(=O)[C@H](CCCNC(=N)N)NC(=O)[C@H](CC(=O)O)NC(=O)[C@@H](NC(=O)[C@H](CCCNC(=N)N)NC(=O)CNC(=O)CNC(=O)[C@H](CC1CCCCC1)NC(=O)CN)[C@@H](C)CC)C(=O)NCC(N)=O` (H-G[Cha]GGRIDRIG-NH2): the concentration for half-maximal inhibition (IC50) in series [1] is greater than 1000 nM; in series [2], 13 nM.
On to `CC[C@H](C)[C@H](NC(=O)[C@H](CCCNC(=N)N)NC(=O)[C@H](CC(=O)O)NC(=O)[C@@H](NC(=O)[C@H](CCCNC(=N)N)NC(=O)CNC(=O)CNC(=O)[C@H](CC1CCCCC1)NC(=O)[C@@H](N)CO)[C@@H](C)CC)C(=O)NCC(N)=O` (H-S[Cha]GGRIDRIG-NH2), for which the half-maximal inhibitory concentration (IC50) in series [1] was greater than 1000 nM; in series [2], 15 nM.
As to `CC[C@H](C)[C@H](NC(=O)[C@H](CCCNC(=N)N)NC(=O)[C@H](CC(=O)O)NC(=O)[C@@H](NC(=O)[C@H](CCCNC(=N)N)NC(=O)CNC(=O)CNC(=O)[C@H](CC1CCCCC1)NC(=O)CNC(=O)[C@@H](N)CO)[C@@H](C)CC)C(=O)NCC(N)=O` (H-SG[Cha]GGRIDRIG-NH2), the values for the concentration for half-maximal inhibition (IC50) in series [1] and in series [2] were greater than 1000 nM and 22 nM, respectively.
Consider `CC[C@H](C)[C@H](NC(=O)[C@H](CCCNC(=N)N)NC(=O)[C@H](CC(=O)O)NC(=O)[C@@H](NC(=O)[C@H](CCCNC(=N)N)NC(=O)CNC(=O)CNC(=O)[C@H](CC1CCCCC1)NC(=O)CNC(=O)[C@H](CO)NC(=O)[C@H](Cc1ccccc1)NC(=O)[C@@H](N)CO)[C@@H](C)CC)C(=O)NCC(N)=O` (H-SFSG[Cha]GGRIDRIG-NH2), for which the values for the half-maximal inhibitory concentration (IC50) in series [1] and in series [2] were greater than 1000 nM and 0.52 nM, respectively.
For `CC[C@H](C)[C@@H]1NC(=O)[C@H](CCCNC(=N)N)NC(=O)[C@H](CC(=O)O)NC(=O)[C@H](CCSC)NC(=O)[C@H](CCCNC(=N)N)NC(=O)CNC(=O)CNC(=O)[C@H](Cc2ccccc2)NC(=O)[C@@H](NC(=O)[C@H](CO)NC(=O)[C@H](CO)NC(=O)[C@H](CCCNC(=N)N)NC(=O)[C@H](CCCNC(=N)N)NC(=O)[C@H](CC(C)C)NC(=O)[C@@H](N)CO)CSSC[C@@H](C(=O)N[C@@H](CC(N)=O)C(=O)N[C@@H](CO)C(=O)N[C@@H](Cc2ccccc2)C(=O)N[C@@H](CCCNC(=N)N)C(=O)N[C@@H](Cc2ccc(O)cc2)C(=O)O)NCC(=O)NC(=O)[C@H](CC(C)C)NC(=O)CNC(=O)[C@H](CO)NC(=O)[C@H](CCC(N)=O)NC(=O)[C@H](C)NC(=O)CNC1=O`, the 50% inhibitory concentration (IC50) in series [1] is 0.094 nM; in series [2], 0.058 nM.
In the case of `CC[C@H](C)[C@H](NC(=O)[C@H](CCCNC(=N)N)NC(=O)[C@H](CC(=O)O)NC(=O)[C@@H](NC(=O)[C@H](CCCNC(=N)N)NC(=O)CNC(=O)CNC(=O)[C@H](CC1CCCCC1)NC(C)=O)[C@@H](C)CC)C(=O)NCC(N)=O` (Ac-[Cha]GGRIDRIG-NH2), the figures for the half-maximal inhibitory concentration (IC50) in series [1] and in series [2] were greater than 1000 nM and 54 nM, respectively.
